“Also recorded” adds a separate entry of the source.
Assay: High fat diet induced obesity (DIO) mouse model
Assay type: in vivo, C57CL/6J mice
Set-up: NSAH (sum) [NASH score]: scale not given here
Conditions: for Total Body Weight / Body Weight: in g (unit assumed)
Description: C57CL/6J mice aged 4-6 weeks (Korea Research Institute of Bioscience & Biotechnology, Ohchang, Korea) were housed in Polycarbonate cages (five mice per cage) in a room with a 12 hr:12 hr light-dark cycle and an ambient temperature of 24° C. All the mice were fed a commercial chow diet for 1 week after arrival in the animal facility. Mice were then divided into normal and obesity groups and fed with normal diet (ND) and high fat diets (HFD) respectively. The HFD group was divided into multiple treatment groups: a high fat diet vehicle group (HFD), an orlistat (purchased as OTC drug Alli®) positive control treatment group (ORI, 40 mg/kg of animal weight, 2 times/day) and optionally a sibutramine positive control treatment group (10 mg/kg, 1 time/day). The HFD contained 340 g of fat/kg of HFD (310 g lard plus 30 g soybean oil; Harlan Laboratories, USA). The HFD was formulated to provide 60% of the total energy generated by the diet from fat by replacing carbohydrate energy with lard and soybean oil, whereas the normal diet (ND) group was fed a diet providing only 18% of the total diet energy from fat(Harlan Laboratories, USA).
Body weight was measured once each week and feed intake was measured twice per week. At the end of the experimental period, following a 12 hr. fasting period, the animals were anesthetized with ether, and blood was drawn from the abdominal vein. Liver and kidney and adipose tissues (epididymal, retroperitoneal, perirenal adipose tissues) were removed from each animal, rinsed with physiological saline, and weighed. Serum concentrations of glucose, total cholesterol, triglycerides, and LDL-cholesterol were determined using automatic analyzer (INTEGRA 400, Roche, Germany). Statistical significance of test results was measured using the Student's t-test.

[1] = mice fed a high fat diet, Mutamba fractions 250 mg/kg oral 2 times per day, mean
[2] = orlistat 40 mg/Kg/day oral, 8 weeks
[3] = orlistat 40 mg/kg oral, 7 weeks
[4] = orlistat 40 mg/kg, 2 times/day, listed as orlistat
[5] = score 0-3, orlistat 40 mg/kg oral
[6] = week 1, DIO mice, oral twice daily, mg/kg/day: ORI 40, Combo (Composition 1A) 800, Magnolia 100, Yerba Mate 500, Morus 200
[7] = week 1, DIO mice, combination (5:1) 1200 mg/kg twice a day by gavage, group mean
[8] = week 1, mice fed a high fat diet, Mutamba fractions 250 mg/kg oral 2 times per day, mean
[9] = week 2, DIO mice, oral twice daily, mg/kg/day: ORI 40, Combo (Composition 1A) 800, Magnolia 100, Yerba Mate 500, Morus 200
[10] = week 2, DIO mice, combination (5:1) 1200 mg/kg twice a day by gavage, group mean
[11] = week 2, mice fed a high fat diet, Mutamba fractions 250 mg/kg oral 2 times per day, mean
[12] = week 3, DIO mice, oral twice daily, mg/kg/day: ORI 40, Combo (Composition 1A) 800, Magnolia 100, Yerba Mate 500, Morus 200

## CCCCCCCCCCC[C@@H](C[C@@H]1OC(=O)[C@H]1CCCCCC)OC(=O)[C@H](CC(C)C)NC=O [ORI, orlistat]
Mice fed a high fat diet, FER = body weight gain (g/day)/food intake (g/day), Mutamba fractions 250 mg/kg oral 2 times per day, mean
  FER (Food efficiency ratio): 0.034
[1]
  Body Weight Gain: 0.093 g/day
  Food Intake: 2.769 g/day
[2]
  Absolute Organ Weight: Epididymal Fat: 2.03 g
  Absolute Organ Weight: Liver: 1.19 g
  Absolute Organ Weight: PeriRenal Fat: 0.29 g
  Absolute Organ Weight: Retroperitoneal Fat: 0.5 g
  Absolute Organ Weight: Total Fat (sum of three fat pads): 2.82 g
  Food Efficiency Ratio (FER): −0.001
  Food Intake (average): 3.147 g/day
  Relative Organ Weight: Epididymal Fat: 0.05
  Relative Organ Weight: Liver: 0.03
  Relative Organ Weight: PeriRenal Fat: 0.01
  Relative Organ Weight: Retroperitoneal Fat: 0.01
  Relative Organ Weight: Total Fat: 0.07
  Weight Gain (average): -0.004 g/day
[3]
  Food Efficiency Ratio (FER): 0.000
  Food Intake (average per day): 3.195 g/day
  Weight Gain (average per day): 0.000 g/day
Orlistat 40 mg/kg, 2 times/day
  blood biochemistry parameters vs HFD group: statistically significant decrease in LDL-cholesterol; also recorded: statistically significant decreases in total cholesterol, LDL-cholesterol, and fasting glucose; also recorded: statistically significant decreases in ALT and LDL-cholesterol; also recorded: statistically significant decrease in ALT
  body weight gain vs HFD group: greatest change in weight gain between week 2 and week 3; also recorded: statistically significant decreases in body weight gains each week after the first week of treatment; also recorded: statistically significant decreases in body weight gain across all weeks of the study; also recorded: statistically significant decreases in body weight gain from week 1 through to week 7; also recorded: statistically significant decreases in weight gain from week 1 through to week 8
[4]
  body weight gain vs HFD group: significant reduction in body weight gain at 7 weeks
  weight gain per day, food intake per day, food efficiency ratio (FER) vs HFD group: significantly reduced FER
Score 0-2, orlistat 40 mg/kg oral
  Liver pathology: Hepatocellular ballooning (0-2): 0.67
[5]
  Liver pathology: Lobular Inflammation (0-3): 1.33
  Liver pathology: Steatosis (0-3): 0.67
Sum of scores, orlistat 40 mg/kg oral
  NSAH (sum) [NASH score]: 2.67
Week 0, DIO mice, oral twice daily, mg/kg/day: ORI 40, Combo (Composition 1A) 800, Magnolia 100, Yerba Mate 500, Morus 200
  Total Body Weight: 40.22
Week 0, DIO mice, combination (5:1) 1200 mg/kg twice a day by gavage, group mean
  Total Body Weight: 38.40
Week 0, ORI 40 mg/kg, DIO mice (Table 52)
  Total Body Weight: 39.96
Week 0, ORI 40 mg/kg, DIO mice
  Total Body Weight: 42.76
Week 0, mice fed a high fat diet, Mutamba fractions 250 mg/kg oral 2 times per day, mean
  Body Weight: 39.76
[6]
  Weight Gain: −2.24
  Total Body Weight: 37.98
Week 1, DIO mice, SIB 10 mg/kg, ORI 40 mg/kg, Mutamba extract 32 (G1) 1000 mg/kg/day oral, mean
  Body Weight Gain: −2.59
Week 1, DIO mice, SIB 10 mg/kg, ORI 40 mg/kg, Mutamba extract 33-2 G1 1000 mg/kg, mean
  Body Weight Gain: −3.05
Week 1, DIO mice, combination (1:1) 2000 mg/kg twice a day, group mean
  Weight Gain: −3.20
[7]
  Weight Gain: −3.20
  Total Body Weight: 35.20
Week 1, ORI 40 mg/kg, DIO mice (Table 52)
  Total Body Weight: 37.37
Week 1, ORI 40 mg/kg, DIO mice
  Total Body Weight: 38.73
Week 1, ORI 40 mg/kg, mice fed high fat diet
  Body Weight Gain: −4.00
[8]
  Body Weight Gain: −3.05
  Body Weight: 36.71
Week 1, orlistat 40 mg/kg oral
  Weight Gain: −5.43
[9]
  Weight Gain: −6.14
  Total Body Weight: 34.08
Week 2, DIO mice, SIB 10 mg/kg, ORI 40 mg/kg, Mutamba extract 32 (G1) 1000 mg/kg/day oral, mean
  Body Weight Gain: −2.90
Week 2, DIO mice, SIB 10 mg/kg, ORI 40 mg/kg, Mutamba extract 33-2 G1 1000 mg/kg, mean
  Body Weight Gain: −2.81
Week 2, DIO mice, combination (1:1) 2000 mg/kg twice a day, group mean
  Weight Gain: −4.88
[10]
  Weight Gain: −4.88
  Total Body Weight: 33.58
Week 2, ORI 40 mg/kg, DIO mice (Table 52)
  Total Body Weight: 37.05
Week 2, ORI 40 mg/kg, DIO mice
  Total Body Weight: 35.09
Week 2, ORI 40 mg/kg, mice fed high fat diet
  Body Weight Gain: −7.38
[11]
  Body Weight Gain: −2.81
  Body Weight: 36.95
Week 2, orlistat 40 mg/kg oral
  Weight Gain: −6.69
[12]
  Weight Gain: −4.91
  Total Body Weight: 35.32
Week 3, DIO mice, SIB 10 mg/kg, ORI 40 mg/kg, Mutamba extract 32 (G1) 1000 mg/kg/day oral, mean
  Body Weight Gain: −2.55
Week 3, DIO mice, SIB 10 mg/kg, ORI 40 mg/kg, Mutamba extract 33-2 G1 1000 mg/kg, mean
  Body Weight Gain: −2.63
Week 3, DIO mice, combination (1:1) 2000 mg/kg twice a day, group mean
  Weight Gain: −3.34
Week 3, DIO mice, combination (5:1) 1200 mg/kg twice a day by gavage, group mean
  Weight Gain: −3.34
